Assay results as given in patent US20080058210A1, “Method of isolating shikimic acid from a plant” (priority 2006, published 2008).

System: Express spring wheat
Assay: Field trial plots with glyphosate on Express spring wheat; shikimic acid in whole above ground plant by water extraction and HPLC
Assay type: in vivo
Method: Field trial plots with glyphosate on Express spring wheat were established at three treatment levels, untreated control, 4 oz formulated/acre, and 14 oz formulated/acre. Field site studies were conducted in eastern Washington, near Kennewick, Wash. There were buffer zones around each treat level and control plot. The whole above ground plant was harvested at time zero, 5, 10, 15, and 20 days after application. The samples were cooled immediately and frozen within one hour. The samples were received from the field and stored in the freezer at <−10 C. At the time of application plants were 8-10 inches tall, after 20 days the control plants were 20-24 inches and beginning to head out.
Plant tissue was placed in an open container and dried at ca. 70 C overnight (14 to 16 hrs). Each sample was ground to pass through a 20 mesh screen. The ground sample was placed in a glass jar. Sealed samples may be stored at ≦−10 C for several months (the longest time tested). Approximately 150 mg of dry ground sample weight was placed into a screw cap bottle, 30 mL of DI water was added, and the bottle was capped and placed on a shaker overnight (14 to 16 hrs) at a minimum of 50 rpm. Extracts were filtered through a Whatman GF/A filter. For quantification, an aliquot was filtered (0.45 μm disposable) into an HPLC auto-sampler vial.
HPLC analysis was performed on a Perkin-Elmer ISS 200. Instrument conditions were as follows: column 250×4.6 mm ALTEX Ultrasphere 5 μm ODS (or equivalent);mobile phase (isocratic) 50 mM KH2PO4 solution adjusted to pH 2.4; flow rate 2 mL/min, detector 214 nm. Calibration curves consisted of 1, 5, 10, 50, 100 and 200 μg/mL standards, r^2 values were ≧0.998. Retention time was ca. 2.0 min.

SMILES: O=C(O)CNCP(=O)(O)O [glyphosate]
- shikimic acid level, factor above normal (higher treat rate 14 oz formulated/acre, day-5): 6
- shikimic acid level, factor above normal (higher treat rate 14 oz formulated/acre, day-10): 10
- shikimic acid level relative to normal (higher treat rate 14 oz formulated/acre, through the study period of 20 days): remains elevated
- shikimic acid level relative to normal (low treat rate 4 oz formulated/acre, day 20): within normal levels
- shikimic acid level, factor above normal (low treat rate 4 oz formulated/acre, day-5 sampling): 4
- shikimic acid level, factor above normal (low treat rate 4 oz formulated/acre, day-10): 2
- shikimic acid level relative to normal (low treat rate 4 oz formulated/acre, day-15): nearly within normal range
